The results in this text go back to US20240009160A1, “USE OF (S)-3-AMINO-4-(DIFLUOROMETHYLENYL)CYCLOPENT-1-ENE-1-CARBOXYLIC ACID IN THE TREATMENT OF CANCER” (Ovid Therapeutics, Inc., priority 2022, published 2024).

A short description of series [1]: 45-day oral tolerability and electroretinogram study, head-to-head with vigabatrin. It counts as in vivo, mice. How it is done:
(§1) In adult mice, an acute no-observed adverse-effect level (NOAEL) of 6 mg/kg by mouth was determined by evaluating behavioral neurotoxicity in naive animals. […] Based on these findings, it is clear that the inhibition of GABA-AT by (S)-3-amino-4-(difluoromethylenyl)cyclopent-1-ene-1-carboxylic acid is not necessarily associated with vigabatrin-like retinal toxicity.

Series [2] is described as follows: Non-GLP safety assessment of retinal function and structure. It counts as in vivo, rats. How it is done:
(§2) A non-GLP safety assessment for changes in retinal function and structure were evaluated in rats. […] In addition, toxicity of (S)-3-amino-4-(difluoromethylenyl)cyclopent-1-ene-1-carboxylic acid was assessed in non-GLP single-dose and repeat dose toxicity studies in rats and dogs. […] (S)-3-amino-4-(difluoromethylenyl)cyclopent-1-ene-1-carboxylic acid was not genotoxic in the Ames assay. The Ames assay is a well-known method that uses several strains of the bacterium Salmonella typhimurium to test whether a given chemical can cause mutations in the DNA of the test organism. No CNS or cardiovascular safety liabilities were identified in an Irwin study in mice. The Irwin observation test is commonly used to evaluate the effects of a new substance on behavior and physiological function. Roux et al., Curr Protoc Pharmacol. 2005 Jan. 1; Chapter 10:Unit 10.

The nature of series [3]: Non-GLP 10-day repeat dose toxicity study in rats. The series is classed as in vivo. The settings on record: for human dose converted from tolerated rat dose: Reagan-Shaw conversion. How it is done: as §2
A short description of series [4]: Non-GLP 10-day repeat dose toxicity study in dogs. The series is classed as in vivo. The method, then: as §2
For the next series, the system named is Salmonella typhimurium. The series is classed as cell-based. How it is done: as §2
Series [5] is described as follows: Genetic toxicity in vitro.
The target of the next series is hERG channel (Homo sapiens, UniProt Q12809). Kind of series: hERG channel activity in vitro.
Series [6] can be described thus: Acute behavioral neurotoxicity in naive adult mice. The note with it: in vivo, oral. How it is done: as §1
The nature of series [7]: Pharmacokinetics after oral administration in rat. The note with it: in vivo.
Series [8] in a line: Pharmacokinetics after oral administration in dog. It counts as in vivo.
A short description of series [9]: Clearance in rat hepatocytes. It counts as in vitro ADME. The note with it: read-out: intrinsic clearance (CIint).
Series [10] is described as follows: Clearance in human hepatocytes. The series is classed as in vitro ADME. The note with it: read-out: intrinsic clearance (CIint).
Series [11] can be described thus: Clearance in dog hepatocytes. The series is classed as in vitro ADME. The note with it: read-out: intrinsic clearance (CIint).
A short description of series [12]: Plasma protein binding, rat. The series is classed as in vitro ADME. The note with it: 37° C., one range given for rat, dog and human, read-out: bound to plasma proteins. How it is done:
(§3) (S)-3-amino-4-(difluoromethylenyl)cyclopent-1-ene-1-carboxylic acid was minimally bound (4 to 20%) to proteins in rat, dog, and human plasma at 37° C.

Series [13] is described as follows: Plasma protein binding, dog. The settings on record: 37° C., one range given for rat, dog and human, read-out: bound to plasma proteins. The series is classed as in vitro ADME. How it is done:
as §3

The nature of series [14]: Plasma protein binding, human. It counts as in vitro ADME. The settings on record: 37° C., one range given for rat, dog and human, read-out: bound to plasma proteins. The method, then:
as §3

Read-outs that look alike come from different tables or passages of the source. A value given as a limit tells only on which side of the number the result lay.

Sequence of hERG channel (Q12809 whole entry): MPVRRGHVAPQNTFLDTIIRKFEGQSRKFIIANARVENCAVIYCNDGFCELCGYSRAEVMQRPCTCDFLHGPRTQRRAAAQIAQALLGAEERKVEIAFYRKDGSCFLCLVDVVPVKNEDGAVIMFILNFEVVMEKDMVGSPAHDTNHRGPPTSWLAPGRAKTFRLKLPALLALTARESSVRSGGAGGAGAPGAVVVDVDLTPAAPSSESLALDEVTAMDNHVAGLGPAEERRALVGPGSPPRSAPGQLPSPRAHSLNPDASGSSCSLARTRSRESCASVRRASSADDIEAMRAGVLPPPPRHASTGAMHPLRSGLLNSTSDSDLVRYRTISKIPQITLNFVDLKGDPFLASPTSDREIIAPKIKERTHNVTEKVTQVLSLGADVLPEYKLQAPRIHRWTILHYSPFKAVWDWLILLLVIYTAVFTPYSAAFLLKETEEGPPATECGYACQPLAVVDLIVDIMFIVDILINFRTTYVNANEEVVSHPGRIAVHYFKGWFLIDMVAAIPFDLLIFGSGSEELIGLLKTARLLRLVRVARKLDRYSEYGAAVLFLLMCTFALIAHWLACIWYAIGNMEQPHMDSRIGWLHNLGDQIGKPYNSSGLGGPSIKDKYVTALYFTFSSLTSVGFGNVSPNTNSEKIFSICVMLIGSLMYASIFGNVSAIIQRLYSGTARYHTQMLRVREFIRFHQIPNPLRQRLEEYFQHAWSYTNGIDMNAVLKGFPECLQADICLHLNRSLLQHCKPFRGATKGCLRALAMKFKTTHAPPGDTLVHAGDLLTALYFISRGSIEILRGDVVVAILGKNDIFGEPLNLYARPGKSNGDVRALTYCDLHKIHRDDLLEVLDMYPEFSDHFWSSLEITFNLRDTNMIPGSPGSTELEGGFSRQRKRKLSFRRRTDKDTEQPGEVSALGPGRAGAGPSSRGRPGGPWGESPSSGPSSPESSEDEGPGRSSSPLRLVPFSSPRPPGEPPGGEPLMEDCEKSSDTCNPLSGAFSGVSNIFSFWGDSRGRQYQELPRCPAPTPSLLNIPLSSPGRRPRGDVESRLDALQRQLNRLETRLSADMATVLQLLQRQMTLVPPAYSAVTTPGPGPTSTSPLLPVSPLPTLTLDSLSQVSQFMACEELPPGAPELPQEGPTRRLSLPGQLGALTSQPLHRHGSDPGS

For the molecule `C=CC(N)CCC(=O)O` (stereo not shown) [vigabatrin, reference compound], in series [1] (mouse, in vivo), the “retinal B-wave amplitudes” value is “reductions in retinal B-wave amplitudes” and the weight result is listed as “marked reduction in weight”.
For `N[C@H]1C=C(C(=O)O)CC1=C(F)F` [(S)-3-amino-4-(difluoromethylenyl)cyclopent-1-ene-1-carboxylic acid], the “human dose converted from tolerated rat dose” value in series [2] (from 1 mg/kg/day rat (so in the source), Reagan-Shaw conversion) stood at 0.48 mg/kg/day; in series [3] (from 10 mg/kg rat), 1.62 mg/kg; in [3] (from 15 mg/kg rat), 2.4 mg/kg. The “well tolerated dose for all assessed ocular endpoints” value in series [2] (rats, 45 days, fundoscopy, ERG, OCT and histological assessments, initial results) is “up to 3 mg/kg/day”. Also, the “well tolerated dose, female rats” value in series [3] (10-day dosing, female rats) was at most 10 mg/kg. In addition, the “well tolerated dose, male rats” value in series [3] (10-day dosing, male rats) is given as “up to 15 mg/kg”. In series [4] (10-day dosing, male and female dogs), the “well tolerated dose, dogs” value is “up to 1.0 mg/kg”. Also, in series [4] (from 1 mg/kg dog, Reagan-Shaw conversion), the “human dose converted from tolerated dog dose” value came out at 1.54 mg/kg. Further, the “genotoxicity in the Ames assay” value with Salmonella typhimurium is listed as “not genotoxic”. Moreover, the genetic toxicity result in [5] was “No evidence of genetic toxicity”. The hERG channel activity result at hERG channel is reported as “No evidence of genetic toxicity or hERG channel activity”. Besides, the NOAEL in [6] (from 6 mg/kg mouse, Reagan-Shaw conversion, read-out: human dose converted from mouse NOAEL) is 0.49 mg/kg; in series [6] (mouse, adult mice, by mouth, behavioral neurotoxicity, read-out: acute no-observed adverse-effect level (NOAEL)), 6 mg/kg. Besides, the tolerability result in series [1] (1 mg/kg/d by mouth for 45 days) is on record as “well tolerated”. In addition, the “human dose converted from tolerated mouse dose” value in [1] (from 1 mg/kg/day mouse, Reagan-Shaw conversion) is recorded as 0.08 mg/kg/day. Moreover, the half-life in series [7] (read-out: elimination half-life (t½)) was in the range of 75 to 90 min; in series [8] (in vivo, dog, oral administration, read-out: elimination half-life (t½)) it was 75 to 90 min. For the same molecule, the Tmax in [7] (read-out: time of maximum concentration (Tmax)) lay in the range of 15 to 30 min; in series [8] (in vivo, dog, oral administration, read-out: time of maximum concentration (Tmax)), 15 to 30 min. Moreover, the “exposure (AUC basis) in dogs compared with rats” value in series [8] (equivalent oral doses) is “higher exposure”. Besides, the CLint scaled in series [9] came out at 1.46 L/h/kg; in series [10], 0.786 L/h/kg; in series [11], 0.538 L/h/kg. The fraction unbound in series [12], in series [13] and in series [14] was 0.8 to 0.96 throughout.
